We go through 82 compounds from the RepoRT retention time repository (doi:10.1021/acs.analchem.1c00972).

One series can be described thus: RP, Waters ACQUITY UPLC BEH C18, 100 × 1 mm, 1.7 µm, 50 °C, 0.3 mL/min, estimated dead time 0.17 min; A: water + 10 mM ammonium bicarbonate; B: 10% water + 90% methanol + 10 mM ammonium bicarbonate; gradient (min/%B) 0/0 15/100 21/100 22/0 30/0. As to conditions: stereoisomer not certain.
With `CNCC(c1ccc(O)cc1)C1(O)CCCCC1` (racemic) [rac N,O-Didesmethyl Venlafaxine], the LC retention time is 15.4 min.
The same measure, in the same setting: under `O=c1[nH]sc2ccccc12` [1,2-Benzisothiazolinone] stands 6.97 min; under `FC(F)(F)c1cccc(N2CCNCC2)c1` [1-(3-Trifluoromethylphenyl)-piperazine], 10.6 min; under `CNC(=O)Nc1ccc(C(C)C)cc1` [1-(4-Isopropylphenyl)-3-methyl-Harnstoff], 13.1 min.
Consider `CCCCCCS(=O)(=O)O` [1-Hexanesulfonic acid], for which the LC retention time is 9.17 min.
As to `CC(C)C(=O)OCC(C)(C)C(OC(=O)C(C)C)C(C)C` (configuration not stated) [2,2,4-Trimethyl-1,3-pentanediol diisobutyrate], the LC retention time is 17.4 min.
The same measure, in the same setting: under `CC1(C)CC(=O)CC(C)(C)N1` [2,2,6,6-Tetramethyl-4 piperidone] stands 7.87 min; under `CC1(C)CC(O)CC(C)(C)N1` [2,2,6,6-Tetramethylpiperidin-4-ol], 4.21 min.
Take `Cc1ccc(C)c(O)c1C` [2,3,6-Trimethylphenol]: the LC retention time is 13.3 min.
`CC(Oc1c(Cl)cc(Cl)cc1Cl)C(=O)O` (configuration not stated) [2,4,6-Fenoprop]: the LC retention time is 2 min.
Regarding `Oc1ccc(Cl)cc1Cl` [2,4-Dichlorophenol], the LC retention time is 12.3 min.
Still for that read-out and setting: the same measure for `Cc1ccc(NC=O)c(C)c1` [2,4-Dimethylformanilide]: 11.2 min; for `Cc1cc(C(C)(C)C)c(O)c(C(C)(C)C)c1` [2,6-Di-tert.-butyl-4-methylphenol]: 18.1 min.
As to `Cc1cccc(C)c1O` [2,6-Dimethylphenol], the LC retention time was 12 min.
As for `OCCc1ccccn1` [2-(2-Pyridyl)ethanol], the LC retention time is 6.8 min.
As to `Nc1ccccc1Cl` [2-Chloroaniline], the LC retention time is 10.6 min.
In the case of `O=C(O)C=Cc1ccccc1O` [2-Hydroxycinnamic acid], the LC retention time is 5 min.
`CCCCCSCCOCCOCCOCCO` [3,6,9-Trioxa-12-thia-heptadecanol]: the LC retention time was 14.6 min.
Still for that read-out and setting: under `NC12CC3CC(C1)CC(O)(C3)C2` [3-Amino-1-adamantanol] stands 10.4 min.
Regarding `Nc1cccc(Cl)c1` [3-Chloroaniline], the LC retention time is 10.6 min.
For `O=C(O)c1cccc(Oc2ccccc2)c1` [3-Phenoxybenzoic acid], the LC retention time was 11.2 min.
Take `Cc1cc(Cl)ccc1N` [4-Chloro-2-methylaniline]: the LC retention time is 12.3 min.
With `Nc1ccc(Cl)cc1` [4-Chloroaniline], the LC retention time is 10.6 min.
As to `COc1ccc(S(=O)(=O)O)cc1` [4-Methoxybenzenesulfonic acid], the LC retention time was 4.27 min.
Same read-out and setting: under `COc1cc([N+](=O)[O-])ccc1O` [4-Nitroguaiacol] stands 4.61 min; under `Nc1[nH]c(=O)ncc1F` [5-Fluorocytosine], 5.99 min; under `C#CC1(O)CCC2C3CCc4cc(O)ccc4C3CCC21C` (stereo not drawn) [17-alpha-Ethinylestradiol], 14.3 min.
Regarding `CC(=O)Nc1ccc(O)cc1` [Acetaminophen], the LC retention time is 5.35 min.
`CNC(=O)ON=CC(C)(C)S(C)(=O)=O` [Aldicarb Sulfone]: the LC retention time was 9.41 min.
As for `NC12CC3CC(CC(C3)C1)C2` [Amantadine], the LC retention time was 10.5 min.
Same read-out and setting: under `CNC(=O)Oc1ccc(N(C)C)c(C)c1` [Aminocarb] stands 12.1 min; under `CN(C)CCC=C1c2ccccc2CCc2ccccc21` [Amitriptyline], 17.4 min; under `Nc1ccccc1C(=O)O` [Anthranilic acid], 2.1 min.
`CCNc1nc(NC(C)C)nc(OC)n1` [Atraton]: the LC retention time is 12.4 min.
On to `CCNc1nc(Cl)nc(NC(C)C)n1` [Atrazine], for which the LC retention time was 13.1 min.
Still for that read-out and setting: under `CCOc1nc2cccc(C(=O)O)c2n1Cc1ccc(-c2ccccc2-c2noc(=O)[nH]2)cc1` [Azilsartan] stands 9.52 min.
Consider `COC(=O)C(C)N(C(=O)Cc1ccccc1)c1c(C)cccc1C` (configuration not stated) [Benalaxyl], for which the LC retention time is 16 min.
As for `CNC(=O)Oc1cccc2c1OC(C)(C)O2` [Bendiocarb], the LC retention time was 11.9 min.
As for `NS(=O)(=O)c1ccccc1` [Benzenesulfonamide], the LC retention time is 12.8 min.
Still for that read-out and setting: the same measure for `O=C(OCc1ccccc1)c1ccccc1` [Benzoic acid benzyl ester]: 16.3 min; for `c1ccc2scnc2c1` [Benzothiazol]: 11.1 min; for `CCON=C(OC(=O)c1ccccc1)c1c(OC)ccc(Cl)c1OC` [Benzoximate]: 16.3 min.
In the case of `C=C(c1ccc(C(=O)O)cc1)c1cc2c(cc1C)C(C)(C)CCC2(C)C` [Bexarotene], the LC retention time was 17 min.
As for `Oc1ccc(C(c2ccccc2)(c2ccccc2)c2ccc(O)cc2)cc1` [Bisphenol BP], the LC retention time was 15.9 min.
Take `CCC(C)(c1ccc(O)cc1)c1ccc(O)cc1` [Bisphenol B]: the LC retention time was 14.3 min.
Consider `Cc1cc(C(C)(C)c2ccc(O)c(C)c2)ccc1O` [Bisphenol C], for which the LC retention time is 13.9 min.
As for `CC(C)(c1ccc(O)c(-c2ccccc2)c1)c1ccc(O)c(-c2ccccc2)c1` [Bisphenol PH], the LC retention time was 17.1 min.
On to `CNC(=O)ON=C(C)C(C)S(C)(=O)=O` (configuration not stated) [Butoxycarboxim], for which the LC retention time is 9.41 min.
Take `CCCCOC(=O)C=Cc1ccccc1` [Butyl cinnamate]: the LC retention time is 14 min.
Same read-out and setting: the same measure for `Cn1c(=O)c2c(ncn2C)n(C)c1=O` [Caffeine]: 7.78 min; for `NC(=O)N1c2ccccc2C=Cc2ccccc21` [Carbamazepin]: 12.6 min.
For the compound `CCCC(C)(COC(N)=O)COC(=O)NC(C)C` (configuration not stated) [Carisoprodol], the LC retention time is 13.3 min.
On to `CC(N)C(O)c1ccccc1` (configuration not stated) [Cathine], for which the LC retention time was 8.36 min.
Still for that read-out and setting: the same measure for `CC1=C(C(=O)O)N2C(=O)C(NC(=O)C(N)c3ccccc3)C2SC1` (configuration not stated) [Cefalexin]: 7.52 min; for `C=CC1=C(C(=O)O)N2C(=O)C(NC(=O)C(=NOCC(=O)O)c3csc(N)n3)C2SC1` (configuration not stated) [Cefixim]: 5.67 min.
Take `CCN1CCN(C(=O)NC(C(=O)NC2C(=O)N3C(C(=O)O)=C(CSc4nnnn4C)CSC23)c2ccc(O)cc2)C(=O)C1=O` (configuration not stated) [Cefoperazone]: the LC retention time was 8.34 min.
Take `c1ccc2ncccc2c1` [Chinolin]: the LC retention time is 11.4 min.
For `NS(=O)(=O)c1cc(C2(O)NC(=O)c3ccccc32)ccc1Cl` (configuration not stated) [Chlorthalidon], the LC retention time is 9.67 min.
With `CN(C)CCCC1(c2ccc(F)cc2)OCc2cc(C#N)ccc21` (configuration not stated) [Citalopram], the LC retention time was 14.8 min.
Turning to `CC1(C)CON(Cc2ccccc2Cl)C1=O` [Clomazone], the LC retention time was 13.9 min.
Take `CCOP(=S)(OCC)Oc1ccc2c(C)c(Cl)c(=O)oc2c1` [Coumaphos]: the LC retention time is 15.9 min.
On the same count and under the same terms, the same measure for `CCN(CC)C(=O)c1cccc(C)c1` [DEET]: 13.4 min; for `CC(C)Nc1nc(N)nc(Cl)n1` [Desethylatrazine]: 9.95 min; for `CCC(C)Nc1nc(N)nc(Cl)n1` (configuration not stated) [Desethylsebutylazin]: 11.5 min.
Regarding `CCNc1nc(N)nc(Cl)n1` [Desisopropylatrazine], the LC retention time was 8.17 min.
Consider `CC(=O)OCC12CCC(C)=CC1OC1C(O)C(OC(C)=O)C2(C)C12CO2` (configuration not stated) [Diacetoxyscirpenol], for which the LC retention time is 12.1 min.
Consider `CN1C(=O)CN=C(c2ccccc2)c2cc(Cl)ccc21` [Diazepam], for which the LC retention time was 14.6 min.
As for `COP(=O)(OC)OC(C)=CC(=O)N(C)C` [Dicrotophos], the LC retention time was 8.69 min.
On to `COCC(C)N(C(=O)CCl)c1c(C)csc1C` (configuration not stated) [Dimethenamid], for which the LC retention time is 14.4 min.
Still for that read-out and setting: the same measure for `CC(C)(C)C(O)C(=Cc1ccc(Cl)cc1Cl)n1cncn1` (configuration not stated) [Diniconazole]: 16.5 min; for `CC=C1N(C)C(C)CC1(c1ccccc1)c1ccccc1` (configuration not stated) [EDDP]: 17.4 min.
As to `CNC(C)C(O)c1ccccc1` (configuration not stated) [Ephedrine], the LC retention time is 13.1 min.
As for `CNCC(O)c1ccc(O)c(O)c1` (configuration not stated) [Epinephrine], the LC retention time was 13.9 min.
The same measure, in the same setting: the same measure for `CC12CCC3c4ccc(O)cc4CCC3C1CC(O)C2O` (configuration not stated) [Estriol]: 11.4 min.
For `CC12CCC3c4ccc(O)cc4CCC3C1CCC2=O` (configuration not stated) [Estrone], the LC retention time was 14.2 min.

The nature of another series: RP, Waters ACQUITY UPLC BEH C18, 100 × 1 mm, 1.7 µm, 50 °C, 0.3 mL/min, estimated dead time 0.17 min; A: water + 0.1% formic acid + 20 mM ammonium formate; B: methanol + 0.1% formic acid + 20 mM ammonium formate; gradient (min/%B) 0/0 15/100 21/100 22/0 30/0. The conditions noted are these: stereoisomer not certain.
For `C=CC1CN2CCC1CC2C(O)c1ccnc2ccc(OC)cc12` (configuration not stated) [quinidine], the LC retention time was 9.5 min.
As to `CC12CCC(=O)C=C1CCC1C2CCC2(C)C(OC3OC(C(=O)O)C(O)C(O)C3O)CCC12` (configuration not stated) [testosterone_glucuronide], the LC retention time is 13.6 min.
With `O=C(O)/C=C/c1cccc(O)c1` [trans-3-Hydroxycinnamic acid], the LC retention time was 7.5 min.
Take `O=C(O)/C=C/c1ccccc1` [trans-Cinnamic acid]: the LC retention time is 9.9 min.
`NCCc1c[nH]c2ccccc12` [tryptamine]: the LC retention time is 7 min.
Turning to `NC(Cc1c[nH]c2ccccc12)C(=O)O` (configuration not stated) [tryptophan], the LC retention time was 6.3 min.
As to `NCCc1ccc(O)cc1` [tyramine], the LC retention time is 2.5 min.
